Assay results reported in patent publication US20170121683A1, “ARYL HYDROCARBON RECEPTOR DISRUPTION AND ENHANCEMENT” (priority 2015, published 2017).

How the values were obtained:
[1] = test system: hESC-derived non-adherent hematopoietic progenitor cells; assay: Hematopoietic colony-forming unit (CFU) assay (Example 2); type: cell-based, human; settings: cells harvested at Day 6+5, 14 days in Methocult, n=3
Source text: FIG. 9A. Non-adherent hematopoietic progenitor cells derived from hESCs differentiated in the presence of SR-1, TCDD, or DMSO controls were harvested at Day 6+5 and seeded at 50,000 cells/dish in a standard methylcellulose colony-forming unit assay (CFU). Colonies were counted for each treatment group following 2 weeks of culture and scored for the following morphological subsets: BFU-E: burst-forming unit-erythroid; CFU-E: colony-forming unit-erythroid; CFU-GM: colony-forming unit-granulocyte, macrophage, CFU-M: colony-forming unit-macrophage; CFU-GEMM: colony-forming unit-granulocyte, erythroid, macrophage, megakaryocyte. n=3, error bars represent SEM of the total number of colonies/50,000 cells seeded, *p<0.05 as assessed with one-way ANOVA+Tukey-Kramer multiple comparisons post-hoc test. FIG. 9B. Non-adherent hematopoietic progenitor cells derived from hESCs differentiated in the presence of SR-1, TCDD, or DMSO controls were harvested at Day 6+3, Day 6+6, and Day 6+9 time points and probed for gene expression by quantitative real-time PCR (qRT-PCR). […]
Day 6+5 spin-EB non-adherent fractions were resuspended in IMDM. […] Plates were incubated for 14 days and subsequently counted and phenotypically scored using standard criteria (Kaufman et al. Proc. Natl. Acad. Sci. U.S.A. 2001; 98(19):10716-21).

[2] = test system: hESC-derived hematopoietic cells; assay: cNK, NKP and ILC3 phenotyping by flow cytometry; type: cell-based, human
Source text: FIG. 15A. Gating scheme for identifying cNK (CD94^−CD117^+), NK progenitor cells (NKP, CD94^+CD117^− and CD94^+CD117^−LFA1^+), and ILC (CD94^−CD117^+LFA1^−) phenotypes. FIG. 15B. Representative flow cytometry profile of non-adherent hematopoietic cells differentiated from hESCs in the presence of DMSO, SR-1, or TCDD at Day 11+28. FIG. 15C. cNK, NKP, and NKP/ILC subpopulations from Day 11+28 DMSO, SR-1, and TCDD differentiated hESCs assessed for CD56 and LFA (CD11a/CD18) surface antigen expression. Representative flow cytometry plots are shown, n=3. FIG. 15D. Total percentage of cNK, NKP, and NKP/ILCs present in the non-adherent fraction of differentiating hESCs in the presence of DMSO, SR-1, or TCDD at Day 11+28. n=3, error bars represent SEM, *p<0.05, **p<0.01, ***p<0.001 as compared to DMSO treated controls and assessed by two-way ANOVA+Tukey-Kramer multiple comparisons post-hoc test. FIG. 15E. CD94^−CD117^+ subpopulations were further quantified for expression of LFA^+ (NKP) and LFA^− (ILC) by flow cytometry. n=3, error bars represent SEM, *p<0.05, **p<0.01 as compared to DMSO treated controls and assessed by two-way ANOVA+Tukey-Kramer multiple comparisons post-hoc test.
Spin-EBs were generated as described above (see also Knorr et al. Stem Cells Dev. 2013; 22(13):1861-9; Ni et al. Embryonic Stem Cell Immunobiol. Methods Protoc. Methods Mol. Biol. 2013; 1029:33-41; Hermanson et al. Stem Cells. 2016; 34(1):93-101). Following 11 days of mesoderm conditioning (Day 11), spin-EBs were collected and analyzed by flow cytometry to assess hematopoietic progenitor cell potential (see flow cytometry methods for antibodies used) (FIG. 4A). Spin-EBs yielding >30% CD34^+CD45^+ cells were transferred onto 24-well plates coated with irradiated OP9-DL1 cells (as described in Martin et al. Blood. 2008; 112(7):2730-7; La Motte-Mohs et al. Blood. 2005; 105(4):1431-9) (now defined as Day 11+0). EBs and OP9-DL1 were co-cultured in NK differentiation media (NKDM) supplemented initially with SCF, IL-15, IL-7, Flt3-L (all R&D Systems), and IL-3 (PeproTech) for one week; DMSO, SR-1, or TCDD were also added at Day 11+0. Every week, a one-half media change with NKDM supplemented with SCF, IL-15, IL-7, Flt3-L, and drugs was performed. hESCs were differentiated for four additional weeks (Day 11+28) and non-adherent cells were harvested for analysis.
The following additional antibodies were used (all anti-human): LFA-1 (CD11a/CD18)-APC-R700 (BD Biosciences), CD31-APC (eBioscience), CD33-APC (BD Biosciences), CD34-PECy7 (BD Biosciences), CD34-APC (BD Biosciences), CD41a-APC (BD Biosciences), CD43-APC (BD Biosciences), CD45-APC (BD Biosciences), CD56-PECy7 (BD Biosciences), CD56-BV421 (BD Biosciences), CD94-PerCP-Cy5.5 (BD Biosciences), CD117-PECy7 (BD Biosciences), CD117-APC (eBiosciences), CD144-APC (eBioscience). Samples were analyzed on either an LSRFortessa or LSRII flow cytometer (BD Biosciences). Gating was set relative to isotype controls of identical fluorophores. Data from flow cytometry was analyzed using FlowJo software (Treestar, Ashland, Oreg.).
To assess the effects of AHR modification on NK cell and ILC specification, non-adherent hematopoietic cells derived from hESCs on Day 11+28 cultured in NKDM supplemented with DMSO, SR-1, or TCDD were harvested as single-cell suspensions. Cells were washed with DPBS, filtered, and stained with the following antibodies (all anti-human): CD56-BV421, CD94-PerCP-Cy5.5, CD117-PECy7, and LFA-1 (CD11a/CD18)-APC-R700 in sterile FACS Buffer (DPBS+2% FBS and 0.1% sodium azide) for 30 minutes at 4° C. Cells were washed with FACS buffer and cells were counterstained with Sytox Blue (ThermoFisher Scientific) immediately prior to sorting. Live NKP, cNK, and ILC3 populations were sorted directly into FACS tubes containing NKDM basal media using a FACSAria II (BD Biosciences) cell sorter. Cells were immediately centrifuged, washed once with PBS, and processed from total RNA isolation as described above.

[3] = Day 11+28, non-adherent fraction, n=3

Compound | total number of colonies / 50,000 cells seeded [1] [colonies] | change in CD94−CD117+ population compared to DMSO ([2]; Day 11+28) | NKP (CD94+CD117+) cells, total percentage [2, 3] [%] | cNK cells (CD94+CD117−), total percentage [2, 3] [%] | shift of NKP population compared to DMSO ([2]; Day 11+28) | percentage of CD94−CD117+ cells absent for LFA1 (ILC3) ([2]; Day 11+28, n=3) [%] | CD94−CD117+ cells, total percentage [2, 3] [%]
CC(C)n1cnc2c(NCCc3ccc(O)cc3)nc(-c3csc4ccccc34)nc21 [SR-1, StemReginin-1] | 245.67±64.4 | significant reduction | 16.13±0.58 | 37.0±2.92 | – | – | –
Clc1cc2c(cc1Cl)Oc1cc(Cl)c(Cl)cc1O2 [TCDD, 2,3,7,8-tetrachlorodibenzo-p-dioxin] | 28.3±2.67 | – | – | – | significantly shifted hESC-derived hematopoietic cells away from NKPs | 69.4±4.57 | 28.5±4.42
